Experimental data as given in ChEMBL document CHEMBL1201862, “PubChem BioAssay data set” (2004).
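Cultured in 96-well plates, cells were exposed to test compound for 48 hours across five concentrations. Abbreviation: GI50, concentration required for 50% inhibition of growth.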 The source made the active and inactive calls. Cut-off read from the data, not from the text of the source: active = GI50 up to about 1.1 µM and inactive = higher.

Experiments:
Test in all cases: growth of human tumour cells (NCI), 48 h
[1] = system: 786-0
[2] = system: A549
[3] = system: ACHN
[4] = system: BT-549
[5] = system: CAKI-1
[6] = system: CCRF-CEM
[7] = system: DU-145
[8] = system: EKVX
[9] = system: HCC 2998
[10] = system: HCT-116
[11] = system: HCT-15
[12] = system: HL-60
[13] = system: HOP-62
[14] = system: HT-29
[15] = system: Hs-578T
[16] = system: IGROV-1
[17] = system: K562
[18] = system: KM12
[19] = system: LOX IMVI
[20] = system: M14
[21] = system: MCF7
[22] = system: MDA-MB-231
[23] = system: MDA-N
[24] = system: MOLT-4
[25] = system: Malme-3M
[26] = system: NCI-H226
[27] = system: NCI-H23
[28] = system: NCI-H460
[29] = system: NCI-H522
[30] = system: NCI/ADR-RES
[31] = system: OVCAR-4
[32] = system: OVCAR-5
[33] = system: OVCAR-8
[34] = system: PC-3
[35] = system: RPMI-8226
[36] = system: SF-268
[37] = system: SF-295
[38] = system: SF-539
[39] = system: SK-MEL-28
[40] = system: SK-MEL-2
[41] = system: SK-MEL-5
[42] = system: SK-OV-3
[43] = system: SN12C
[44] = system: SNB-19
[45] = system: SNB-75
[46] = system: SR
[47] = system: SW-620
[48] = system: T47D
[49] = system: TK-10
[50] = system: U-251
[51] = system: UACC-257
[52] = system: UACC-62
[53] = system: UO-31
[54] = system: A498
[55] = system: COLO 205
[56] = system: OVCAR-3
[57] = system: RXF 393
[58] = system: MDA-MB-435

CCCCCCC1CC(=O)C1(Cl)Cl (stereo not given)
GI50 [1]: 15 µM (inactive)
GI50 [2]: > 100 µM (inactive)
GI50 [3]: 18.3 µM (inactive)
GI50 [4]: 21.4 µM (inactive)
GI50 [5]: 18.9 µM (inactive)
GI50 [6]: 2.4 µM (inactive)
GI50 [7]: 26.9 µM (inactive)
GI50 [8]: 59.2 µM (inactive)
GI50 [9]: 26.3 µM (inactive)
GI50 [10]: 16.7 µM (inactive)
GI50 [11]: 31 µM
GI50 [12]: 2.96 µM (inactive)
GI50 [13]: 44.7 µM (inactive)
GI50 [14]: 26.7 µM (inactive)
GI50 [15]: 20 µM (inactive)
GI50 [16]: 25.1 µM (inactive)
GI50 [17]: 14.7 µM (inactive)
GI50 [18]: 22.4 µM (inactive)
GI50 [19]: 14.8 µM (inactive)
GI50 [20]: 26.7 µM (inactive)
GI50 [21]: 26.4 µM (inactive)
GI50 [22]: 30.7 µM (inactive)
GI50 [23]: 25.9 µM (inactive)
GI50 [24]: 13.5 µM (inactive)
GI50 [25]: 16.1 µM (inactive)
GI50 [26]: 43.9 µM (inactive)
GI50 [27]: 25.2 µM (inactive)
GI50 [28]: > 10 µM (inactive)
GI50 [29]: 17.3 µM (inactive)
GI50 [30]: 32.2 µM (inactive)
GI50 [31]: 29.1 µM (inactive)
GI50 [32]: > 100 µM (inactive)
GI50 [33]: 23.2 µM (inactive)
GI50 [34]: 25.1 µM (inactive)
GI50 [35]: 0.377 µM (active)
GI50 [36]: 20.7 µM (inactive)
GI50 [37]: 33.9 µM (inactive)
GI50 [38]: 31.3 µM (inactive)
GI50 [39]: > 10 µM (inactive)
GI50 [40]: 30.9 µM (inactive)
GI50 [41]: 17 µM (inactive)
GI50 [42]: > 100 µM (inactive)
GI50 [43]: 29.2 µM (inactive)
GI50 [44]: 63.7 µM (inactive)
GI50 [45]: 16.6 µM (inactive)
GI50 [46]: > 10 µM (inactive)
GI50 [47]: 19.6 µM (inactive)
GI50 [48]: 27.5 µM (inactive)
GI50 [49]: > 100 µM (inactive)
GI50 [50]: 38.3 µM (inactive)
GI50 [51]: 18.7 µM (inactive)
GI50 [52]: 20.3 µM (inactive)
GI50 [53]: 19.4 µM (inactive)

O=C1CSCc2sccc21
GI50 [1]: > 100 µM (inactive)
GI50 [54]: > 100 µM (inactive)
GI50 [2]: > 100 µM (inactive)
GI50 [3]: > 100 µM (inactive)
GI50 [4]: > 100 µM (inactive)
GI50 [5]: > 100 µM (inactive)
GI50 [6]: > 100 µM (inactive)
GI50 [55]: > 100 µM (inactive)
GI50 [7]: > 100 µM (inactive)
GI50 [8]: > 100 µM (inactive)
GI50 [9]: 15 µM (inactive)
GI50 [10]: > 100 µM (inactive)
GI50 [11]: > 100 µM
GI50 [12]: > 100 µM (inactive)
GI50 [13]: > 100 µM (inactive)
GI50 [14]: > 100 µM (inactive)
GI50 [15]: > 100 µM (inactive)
GI50 [16]: > 100 µM (inactive)
GI50 [17]: > 100 µM (inactive)
GI50 [18]: > 100 µM (inactive)
GI50 [20]: > 100 µM (inactive)
GI50 [21]: > 100 µM (inactive)
GI50 [22]: > 100 µM (inactive)
GI50 [23]: > 100 µM (inactive)
GI50 [24]: > 100 µM (inactive)
GI50 [26]: > 100 µM (inactive)
GI50 [27]: > 100 µM (inactive)
GI50 [28]: > 100 µM (inactive)
GI50 [29]: > 100 µM (inactive)
GI50 [30]: > 100 µM (inactive)
GI50 [56]: > 100 µM (inactive)
GI50 [31]: > 100 µM (inactive)
GI50 [32]: > 100 µM (inactive)
GI50 [33]: > 100 µM (inactive)
GI50 [34]: > 100 µM (inactive)
GI50 [57]: < 0.01 µM (active)
GI50 [36]: > 100 µM (inactive)
GI50 [37]: > 100 µM (inactive)
GI50 [38]: > 100 µM (inactive)
GI50 [39]: > 100 µM (inactive)
GI50 [40]: > 100 µM (inactive)
GI50 [41]: > 100 µM (inactive)
GI50 [42]: > 100 µM (inactive)
GI50 [43]: > 100 µM (inactive)
GI50 [44]: > 100 µM (inactive)
GI50 [45]: 52.8 µM (inactive)
GI50 [46]: > 100 µM (inactive)
GI50 [47]: > 100 µM (inactive)
GI50 [48]: > 100 µM (inactive)
GI50 [49]: > 100 µM (inactive)
GI50 [50]: > 100 µM (inactive)
GI50 [51]: > 100 µM (inactive)
GI50 [52]: > 100 µM (inactive)
GI50 [53]: > 100 µM (inactive)

Cc1n[nH]c(=O)n1/N=C\c1ccccc1
GI50 [1]: > 100 µM (inactive)
GI50 [54]: > 100 µM (inactive)
GI50 [2]: > 100 µM (inactive)
GI50 [3]: > 100 µM (inactive)
GI50 [4]: > 100 µM (inactive)
GI50 [5]: > 100 µM (inactive)
GI50 [6]: > 100 µM (inactive)
GI50 [55]: > 100 µM (inactive)
GI50 [7]: > 100 µM (inactive)
GI50 [8]: > 100 µM (inactive)
GI50 [9]: > 100 µM (inactive)
GI50 [10]: > 100 µM (inactive)
GI50 [11]: > 100 µM
GI50 [12]: > 100 µM (inactive)
GI50 [13]: > 100 µM (inactive)
GI50 [14]: > 100 µM (inactive)
GI50 [15]: > 100 µM (inactive)
GI50 [16]: > 100 µM (inactive)
GI50 [17]: > 100 µM (inactive)
GI50 [18]: > 100 µM (inactive)
GI50 [19]: > 100 µM (inactive)
GI50 [21]: > 100 µM (inactive)
GI50 [22]: > 100 µM (inactive)
GI50 [58]: > 100 µM (inactive)
GI50 [23]: > 100 µM (inactive)
GI50 [24]: > 100 µM (inactive)
GI50 [25]: > 100 µM (inactive)
GI50 [26]: > 100 µM (inactive)
GI50 [27]: > 100 µM (inactive)
GI50 [28]: > 100 µM (inactive)
GI50 [29]: > 100 µM (inactive)
GI50 [30]: > 100 µM (inactive)
GI50 [56]: > 100 µM (inactive)
GI50 [31]: > 100 µM (inactive)
GI50 [32]: > 100 µM (inactive)
GI50 [33]: > 100 µM (inactive)
GI50 [34]: > 100 µM (inactive)
GI50 [35]: > 100 µM (inactive)
GI50 [57]: < 0.01 µM (active)
GI50 [36]: 0.0855 µM (active)
GI50 [37]: 59.2 µM (inactive)
GI50 [38]: > 100 µM (inactive)
GI50 [39]: > 100 µM (inactive)
GI50 [40]: 83.9 µM (inactive)
GI50 [41]: > 100 µM (inactive)
GI50 [43]: > 100 µM (inactive)
GI50 [46]: > 100 µM (inactive)
GI50 [47]: > 100 µM (inactive)
GI50 [49]: > 100 µM (inactive)
GI50 [50]: > 100 µM (inactive)
GI50 [51]: > 100 µM (inactive)
GI50 [52]: > 100 µM (inactive)
GI50 [53]: > 100 µM (inactive)
